The text below walks through data of patent US6858396B2, “Positively charged non-natural amino acids, methods of making and using thereof in peptides” (Medical University of South Carolina, priority 1996, dated 2005).

Data set [1] deals with T1, Thrombin (Homo sapiens, UniProt P00734). The experiment in a line: Competitive inhibition of thrombin in vitro, chromogenic substrate (D)-Phe-Pip-Arg-p-NA. The data set is classed as biochemical. On the set-up: 0.01 units of human thrombin (Sigma); purchased Sigma. Conditions: for % Inhibition: peptide 20 μM, 0.01 units human thrombin, pH 7.5, 25° C. As to the method:
A (D)-Phe-Pro-Arg-Ala analogue containing non-natural amino acid (7) (as the racemic mixture in the side chain) in place of Arg was synthesized and compared to (D)-Phe-Pro-Arg-Ala as a competitive inhibitor of thrombin in vitro. The molecule referred to as 7 is Formula I, R1=[…], R2=H, R3=H, R13=H and N=4. The stereochemistry at C2 is racemic (equal D- and L-forms present).
Peptides were incubated individually at 20 μM concentrations with 0.01 units of human thrombin (Sigma) and saturating concentrations of the chromogenic substrate (D)-Phe-Pip-Arg-p-NA at pH 7.5 and 25° C. in 0.1 M phosphate buffer containing 0.2 M NaCl and 0.5% PEG (5c). Initial rates were determined by monitoring formation of p-NA at 405 nm in the absence and presence of the indicated peptides to determine % inhibition. Standard errors were<5%.

The test system of data set [2] is NT receptor. The experiment in a line: Hypothermia in rats after I.V. or I.C. injection of NT(8-13) derivatives (brain uptake across the BBB). The data set is classed as in vivo. The source says:
Peptides 36, 39, 42, and 45 are NT(8-13) with non-natural amino acids 32-35 (Scheme L), respectively, were substituted for the Arg^(8) residue.

On data set [3], the source says: (§1) Thrombin is a major control point of the blood coagulation cascade, and inhibitors are of interest to combat thrombotic diseases.
For data set [4], the target named is T1, Thrombin. The experiment in a line: Thrombin inhibition (Ki). The data set is classed as biochemical.
Description: as §1

For data set [5] the following is noted: in vivo; cited from earlier work.
In data set [6] the target is T2, Trypsin (Bos taurus, UniProt P00760).
T2 construct: gene PRSS1
T2 sequence (P00760 24-246): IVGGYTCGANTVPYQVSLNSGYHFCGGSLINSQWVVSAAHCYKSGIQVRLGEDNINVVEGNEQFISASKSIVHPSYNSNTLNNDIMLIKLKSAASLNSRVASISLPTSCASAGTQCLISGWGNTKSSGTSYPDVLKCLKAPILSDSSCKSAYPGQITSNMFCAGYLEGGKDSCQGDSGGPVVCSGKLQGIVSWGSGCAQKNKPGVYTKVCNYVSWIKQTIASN
The experiment in a line: Trypsin inhibition (Ki). The data set is classed as biochemical. As to conditions: at its limit of solubility in water.
Description: as §1

Read-outs that look alike come from different tables or passages of the source. Square brackets hold non-standard residues; d marks the D form. Ends that are not written are not given here. Peptide text beside a SMILES is read from it. hLys = NCCCCC[C@H](N)C(=O)O Some results are limits rather than exact numbers.

Turning to (D)-Phe-Pro-7-Ala, the “% Inhibition” value in data set [1] is given as 82%. Besides, the “better competitive inhibitor than the parent peptide” value in data set [1] (relative to (D)-Phe-Pro-Arg-Ala) is given as approximately 25%.

Regarding `CC[C@H](C)[C@H](NC(=O)[C@H](Cc1ccc(O)cc1)NC(=O)[C@@H]1CCCN1C(=O)[C@H](CCCNC(=N)N)NC(=O)[C@@H](N)CCCCCN)C(=O)N[C@@H](CC(C)C)C(=O)O` [Peptide 36] (H-[hLys]RPYIL-OH), the “improvement upon the previously evaluated peptides NT-1 and NT66L” value in data set [2] (brain uptake) is not below 300 fold. In addition, in data set [2] (rats, single 0.2-mg I.V. dose versus I.C., estimated by potency ratios (FIG. 1B)), the uptake into brain result was “roughly 28%”.

Regarding “(D)-Phe-Pro-Arg-Ala ([dF]PRA) [reference compound]”, the “% Inhibition” value in data set [1] is given as 65%.

Regarding `N=C(N)NCCC[C@H](N)C(=O)O` [Arg, arginine, reference compound], in data set [3], the “RP-HPLC Retention Time” value was 20.9 ± 0.02 min. In addition, the Ki in data set [4] (as the N-α-DNS, —COO-Pip derivatives, read-out: Thrombin K12) was found to be 83 ± 24 nM.

On to “Arg^(8)-Arg^(9)-Pro^(10)-Tyr^(11)-Ile^(12)-Leu^(13)-COOH [NT(8-13), reference compound]”, for which, in data set [2] (rats, I.V., 1.0 mg doses (FIG. 1A)), the “activity (hypothermia) / uptake into brain after I.V. injection” value is “no activity”. Moreover, in data set [5], the “crossing of the blood brain barrier” value is recorded as “does not cross the blood brain barrier”.

With `CCNC(=N)NCCC[C@H](N)C(=O)O` [Compound 31, N(γ)ethyl-Arg], in data set [3] (compared with arginine), the “lipophilicity based on RP-HPLC” value is given as “more lipophilic”. Also, the “RP-HPLC Retention Time” value in data set [3] (measure of lipophilicity, as the N-α-DNS, —COO-Pip derivatives) amounted to 23.1 ± 0.01 min. Besides, in data set [4], the Ki worked out at 190 ± 66 nM. Moreover, the “increase in thrombin/trypsin Ki selectivity ratio compared with arginine” value in data set [4] (KI (Thrombin/Trypsin), 31 versus arginine) is not below 60 fold. Also, in data set [6], the “inhibition of trypsin at limit of solubility in water” value is recorded as “does not inhibit trypsin”.
